From US20210379068A1, “METHODS AND MATERIALS FOR TREATING NEUROPSYCHIATRIC DISORDERS” (Mayo Foundation for Medical Education and Research, priority 2018, published 2021)
Entries after “also recorded” stand apart in the source; their conditions may differ.

Tests used:
Format in all cases: in vivo, mouse
[1] = tested on: senescent cells in cortex, cerebellum, and hippocampus; test: Senescence markers in cortex, cerebellum and hippocampus, INK-ATTAC mice; conditions: obese and lean INK-ATTAC mice with and without AP
Protocol: (§1) INK-ATTAC mice were injected intraperitoneally (i.p.) with AP20187 (10 mg/kg) or vehicle for 3 days every 2 weeks for a total of 8-10 weeks.
Total RNA was extracted from white adipose tissue and brain using Trizol (Life Technologies, Carlsbad, Calif.) and reverse transcribed to cDNA with a M-MLV Reverse Transcriptase kit (Life Technologies). Real-time PCR was performed in a 7500 Fast Real Time PCR System (Applied Biosystems, Foster City, Calif.) using TaqMan Fast Universal PCR Master Mix (Life Technologies) and predesigned primers and probes from Applied Biosystems (Assay ID: Mm00494449_m1 [CDKN2A]; Mm04205640_g1 [CDKN1A]; Mm00446191_m1 [IL6]). Target gene expression was expressed as 2-ΔΔCT by the comparative CT method and normalized to the expression of TATA-binding protein (TBP) (Assay ID: Mm01277042 ml [TBP]).
(§2) Paraffin sections were deparaffinized with Histoclear and hydrated in an ethanol gradient followed by water and PBS. Antigen was retrieved by incubation in 0.01M citrate buffer (pH 6.0) at 95° C. for 10 minutes. Slides were placed in blocking buffer (1:60 normal goat serum [S-1000, Vector Laboratories] in 0.1% BSA/PBS) for 60 minutes at room temperature. […] Primary antibodies used (Table 2) were diluted in blocking buffer and applied overnight at 4° C. The next day, slides were washed 3 times with PBS and incubated for 30 minutes with secondary goat, anti-rabbit antibody (1:200; Vector Laboratories #BA-1000) for TAF staining or for 60 minutes with secondary Alexa antibody (Table 1). […]
A single, 3 μm-thick section per mouse was used for TAF staining, while for Dcx and Plin2 staining was performed on three 10 μm-thick sections 80 μm-apart. To quantify periventricular lipid accumulation 10-30 images in the periventricular region were taken using the DM5500 widefield fluorescence microscope from Leica with a 10× (for frequency of periventricular glia) or ×40 (for ALISE phenotype of ependymal cells) objective lens. Number of Plin2-positive cells (for frequency of ALISE-positive periventricular glia) or area of Plin2-positive vesicles (for ALISE phenotype of ependymal cells) was assessed using ImageJ software. For identity assessment of Plin2+ cells, 10 μm-thick sections were stained with combination of antibodies for Iba1 (secondary antibody conjugated with Alexa Fluor 488), Plin2 (secondary antibody conjugated with Alexa Fluor 594), and Vimentin (secondary antibody conjugated with Alexa Fluor 647) and quantified for frequency of Plin2+ astrocytes (Iba1−, Vim+) and microglia (Iba1+) in the periventricular region. […] For TAF quantification in depth Z stacking was used (images were captured as stacks separated by 0.4 μm with ×63 objective) followed by ImageJ analysis.

HFD-fed INK-ATTAC mice = test: Open field test, chow/HFD INK-ATTAC mice treated with AP20187
Protocol: as §1
Locomotor activity and anxiety-like behavior of mice were assessed in sound-insulated, rectangular activity chambers (Med Associates Inc., St Albans, Vt., USA: W×L×D=27 cm×27 cm×20 cm with continually running fans, infrared lasers, and sensors). Beam breaks were assessed in 2-minute bins over 30 minutes, converted automatically to current mouse location and distance travelled (cm), and recorded on a computer with Med-PC software Version 4.0. Before the test, mice were acclimatized to the room for 1-1.5 hours before being introduced into the chambers. Mice were habituated for 5 minutes in the Open Field chamber (without recording) then placed for another 5 minutes in the home cage. Afterwards, mice were introduced back to the chambers and all mouse movements were recorded for 30 minutes. Anxiety was quantified by the distance mice travelled in the central 25% of the chamber (zone 1) as a function of the total distance mice travelled and by frequencies of entries into zone 1.

[2] = tested on: senescent cells in the hypothalamus; test: TAF in hypothalamus close to the 3rd ventricle, INK-ATTAC mice; conditions: HFD INK-ATTAC mice, AP20187 vs vehicle
Protocol: as §1
Paraffin sections were deparaffinized with Histoclear and hydrated in an ethanol gradient followed by water and PBS. Antigen was retrieved by incubation in 0.01M citrate buffer (pH 6.0) at 95° C. for 10 minutes. Slides were placed in blocking buffer (1:60 normal goat serum [S-1000, Vector Laboratories] in 0.1% BSA/PBS) for 60 minutes at room temperature. […] Primary antibodies used (Table 2) were diluted in blocking buffer and applied overnight at 4° C. The next day, slides were washed 3 times with PBS and incubated for 30 minutes with secondary goat, anti-rabbit antibody (1:200; Vector Laboratories #BA-1000) for TAF staining or for 60 minutes with secondary Alexa antibody (Table 1). For TAF staining, Fluorescein-Avidin in PBS (1:500; #A-2011, Vector Lab) was applied to each sample for 20 minutes. Slides were washed 3 times in PBS, which was followed by FISH for TAF detection. Briefly, tissues were crosslinked with 4% paraformaldehyde for 20 minutes and dehydrated in graded ethanol. Sections were denatured for 10 minutes at 80° C. in hybridization buffer (70% formamide (Sigma), 25 mM MgCl2, 0.1 M Tris (pH 7.2), and 5% blocking reagent [Roche]) containing 2.5 μg ml^−1 Cy-3-labelled telomere-specific (CCCTAA) peptide nucleic acid probe (Panagene), followed by hybridization for 2 hour at room temperature in the dark. Slides were washed twice with 70% formamide in 2×SSC for 15 minutes, followed by washes in 2×SSC and PBS for 10 minutes. Sections were mounted in Vectashield, DAPI-containing mounting media and imaged.
A single, 3 μm-thick section per mouse was used for TAF staining, while for Dcx and Plin2 staining was performed on three 10 μm-thick sections 80 μm-apart. To quantify periventricular lipid accumulation 10-30 images in the periventricular region were taken using the DM5500 widefield fluorescence microscope from Leica with a 10× (for frequency of periventricular glia) or ×40 (for ALISE phenotype of ependymal cells) objective lens. Number of Plin2-positive cells (for frequency of ALISE-positive periventricular glia) or area of Plin2-positive vesicles (for ALISE phenotype of ependymal cells) was assessed using ImageJ software. For identity assessment of Plin2+ cells, 10 μm-thick sections were stained with combination of antibodies for Iba1 (secondary antibody conjugated with Alexa Fluor 488), Plin2 (secondary antibody conjugated with Alexa Fluor 594), and Vimentin (secondary antibody conjugated with Alexa Fluor 647) and quantified for frequency of Plin2+ astrocytes (Iba1−, Vim+) and microglia (Iba1+) in the periventricular region. A separate staining for Plin2 (secondary antibody conjugated with Alexa Fluor 594) and NeuN (secondary antibody conjugated with Alexa Fluor 647) was used to determine frequency of Plin2+ neurons in periventricular region. For TAF quantification in depth Z stacking was used (images were captured as stacks separated by 0.4 μm with ×63 objective) followed by ImageJ analysis.

[3] = tested on: senescent cells in the amygdala; test: Telomere associated foci (TAF) in basomedial layer of the amygdala, INK-ATTAC mice; conditions: HFD INK-ATTAC mice, AP20187 vs vehicle
Protocol: as §1
as §2, with “1). For TAF staining, Fluorescein-Avidin in PBS (1:500; #A-2011, Vector Lab) was applied to each sample for 20 minutes. Slides were washed 3 times in PBS, which was followed by FISH for TAF detection.” for “1).”
A single, 3 μm-thick section per mouse was used for TAF staining, while for Dcx and Plin2 staining was performed on three 10 μm-thick sections 80 μm-apart. To quantify periventricular lipid accumulation 10-30 images in the periventricular region were taken using the DM5500 widefield fluorescence microscope from Leica with a 10× (for frequency of periventricular glia) or ×40 (for ALISE phenotype of ependymal cells) objective lens. Number of Plin2-positive cells (for frequency of ALISE-positive periventricular glia) or area of Plin2-positive vesicles (for ALISE phenotype of ependymal cells) was assessed using ImageJ software. For identity assessment of Plin2+ cells, 10 μm-thick sections were stained with combination of antibodies for Iba1 (secondary antibody conjugated with Alexa Fluor 488), Plin2 (secondary antibody conjugated with Alexa Fluor 594), and Vimentin (secondary antibody conjugated with Alexa Fluor 647) and quantified for frequency of Plin2+ astrocytes (Iba1−, Vim+) and microglia (Iba1+) in the periventricular region. […]

brain cell populations = test: CyTOF of brain cell populations, INK-ATTAC mice; conditions: AP vs vehicle
Protocol: as §1
This technique uniquely combines time-of-flight mass spectrometry with metal-labelling technology to enable detection of up to 40 protein targets per cell. A panel of antibodies based on surface markers, transcription factors, and cytokines (see Table 1) was designed for brain mass cytometry/cytometry by time of flight (CyTOF). Each antibody was tagged with a rare metal isotope and its function verified by mass cytometry according to the factory manual (Multi Metal labelling Kits, Fluidigm, CA). A CyTOF-2 mass cytometer (Fluidigm, South San Francisco, Calif.) was used for data acquisition. Acquired data were normalized based on normalization beads (Ce140, Eu151, Eu153, Ho165, and Lu175). A single brain hemisphere was dissociated into a single-cell suspension using brain tissue dissociation kits (Adult Brain Dissociation Kit, Miltenyi Biotec Inc., CA). Collected cells were incubated with metal-conjugated antibodies and, for testing intracellular proteins, including transcription factors and cytokines, fixation and permeabilization was conducted according to the manufacturer's instructions (Transcription Factor Staining Buffer Set, eBioscience, San Diego, Calif.). CyTOF data were analyzed by Cytobank (Santa Clara, Calif.).

[4] = INK-ATTAC mice on HFD, AP20187 10 mg/kg i.p. 3 days every 2 weeks, 8-10 weeks, vs vehicle

CC[C@H](C(=O)N1CCCC[C@H]1C(=O)O[C@H](CCc1ccc(OC)c(OC)c1)c1cccc(OCC(=O)NCC(CNC(=O)COc2cccc([C@@H](CCc3ccc(OC)c(OC)c3)OC(=O)[C@@H]3CCCCN3C(=O)[C@@H](CC)c3cc(OC)c(OC)c(OC)c3)c2)CN(C)C)c1)c1cc(OC)c(OC)c(OC)c1 [AP]
TAF in cortex, cerebellum, hippocampus [1]: No differences | p16 in cortex, cerebellum, hippocampus [1]: No differences | p21 in cortex, cerebellum, hippocampus [1]: No differences | γ-H2A.X in cortex, cerebellum, hippocampus [1]: No differences | anxiety-like behavior: distance travelled in the central zone (as function of total distance), open field (HFD-fed INK-ATTAC mice; [4]): alleviated; also recorded: reduced HFD-induced anxiety-like behavior | anxiety-like behavior: entries into the central zone, open field (HFD-fed INK-ATTAC mice; [4]): alleviated; also recorded: reduced HFD-induced anxiety-like behavior | total distance travelled, open field (HFD-fed INK-ATTAC mice; INK-ATTAC mice, AP20187 10 mg/kg i.p. vs vehicle): did not affect | open field parameters (central distance, entries) in chow-fed mice (HFD-fed INK-ATTAC mice; chow-fed INK-ATTAC mice, AP20187 10 mg/kg i.p. vs vehicle): did not affect | % of NeuN-neg cells with 2 or more TAF, hypothalamus close to the 3rd ventricle [2]: significant decrease | % of NeuN-pos cells with 2 or more TAF, hypothalamus close to the 3rd ventricle [2]: significant decrease | mean number of TAF in NeuN-neg cells, hypothalamus close to the 3rd ventricle [2]: significantly reduced | mean number of TAF in NeuN-pos cells, hypothalamus close to the 3rd ventricle [2]: significantly reduced | % of NeuN-neg cells with 2 or more TAF, hypothalamus close to the 3rd ventricle ([2]; listed as AP20187): significantly reduced | % of NeuN-pos cells with 2 or more TAF, hypothalamus close to the 3rd ventricle ([2]; listed as AP20187): significantly reduced | % of NeuN-pos cells with 2 or more TAF (TAF positive neurons), basomedial layer of the amygdala [3]: significant decrease | mean number of TAF in NeuN-pos cells, basomedial layer of the amygdala [3]: significantly reduced | % of NeuN-pos cells with 2 or more TAF (TAF positive neurons), basomedial layer of the amygdala ([3]; listed as AP20187): significantly reduced | ependymal cells (CD133+), CyTOF (brain cell populations; HFD INK-ATTAC mice): significantly increased; also recorded: replenish | immature neurons (Dcx+), CyTOF (brain cell populations; HFD INK-ATTAC mice): significantly increased; also recorded: partial recovery | neuronal precursor cells (Nestin+), CyTOF (brain cell populations; HFD INK-ATTAC mice): replenish; also recorded: significantly increased | frequency of endothelial cells (CD146+), CyTOF (brain cell populations; INK-ATTAC mice): did not alter | frequency of mature neurons (NeuN+), CyTOF (brain cell populations; INK-ATTAC mice): did not alter | frequency of microglia (CD11b+, CD45-), CyTOF (brain cell populations; INK-ATTAC mice): did not alter | frequency of oligodendrocytes (CNPase+ or OSP+), CyTOF (brain cell populations; INK-ATTAC mice): did not alter
